Legend:
tomato leaves = conditions: in vivo
Description: Tracer loading into star polymers. To load CV into star polymers, 10 mg of star polymer was dissolved into 5 mL of Milli Q water with pH adjusted to 7.5 by adding aliquots of 0.1M HCl and 0.1 M NaOH. 2 mg of CV was added into the star polymer solution and the mixture was vortex mixed for 24 h. The resulting solution was dialyzed against 2 L of Milli Q water for 2 cycles to remove free CV. After dialysis, the sample volume was adjusted to 20 mL to get a 0.5 g L^−1 CV loaded star polymer solution. Spreading agent Silwet L-77 was added into the star polymer solution at 0.1% (v/v) before foliar application. 20 μL of the CV loaded star polymer was applied onto tomato leaves by drop deposition.
This enhanced resolution dark-field microscope system (BX51, Olympus, USA) was equipped with a 150 W halogen light source (Fiber-Lite, Dolan-Jenner, USA) and a hyperspectral camera (CytoViva hyperspectral imaging system 1.4). […] Hyperspectral images were acquired using 100% light source intensity and 0.1 to 0.25 s acquisition per line and corrected for the lamp contribution. […]
RSP uptake and distribution in tomato leaves. RSP interactions with the plant leaf after foliar application was assessed by dark field hyperspectral imaging (DF-HSI) of crystal violet (CV) loaded RSP in tomato leaves. […]

tomato plants = assay: Leaf carbon assimilation and chlorophyll fluorescence under combined heat and excess light stress; format: in vivo, Solanum lycopersicum; conditions: after heat and light stress 1.5 h
Description: Plant growth. […] The sterilized seeds were germinated in petri-dish on water-soaked filter paper under dark for 10 days. Afterwards, the seedlings were transplanted to 100 mL plastic cups. Each seedling was grown hydroponically using 1⁄4 strength Hoagland's solution aerated using air pumps. […] Leaf carbon assimilation rate and chlorophyll fluorescence. Plant leaf carbon assimilation and chlorophyll fluorescence was measured by a Li-Cor Li-6800 portable photosynthesis system. […] Combined heat and excess light stress. The carbon (A-Ci) and light response (A-PAR) curves of treated leaves were measured before stress conditions. […] The carbon and light response curves were measured again and compared with the curve acquired before stress. […] Light adapted ([…]) chlorophyll fluorescent test were also performed before and after stress conditions. The A-Ci curves were analyzed according to previously reported model for C3 plants: […]

Row | SMILES | Location in tomato leaf (tomato leaves) | Photosynthesis enhancement compared to control leaves (tomato plants)
1 | CN(C)c1ccc(C(=C2C=CC(=[N+](C)C)C=C2)c2ccc(N(C)C)cc2)cc1 [CV, crystal violet] | primarily found on the leaf epidermis, with a limited amount inside the mesophyll | 
2 | [Cl-].[Cl-].[Mg+2] [Mg^2+] |  | No significant photosynthesis enhancement
